Laboratory results taken from ChEMBL document CHEMBL1201862, “PubChem BioAssay data set” (2004).
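Five concentrations, 48 hours, 96-well plates. Here, GI50 denotes the concentration required for 50% inhibition of growth.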 Calls of active or inactive are those of the source. Cut-off read from the data, not from the text of the source: active = GI50 up to about 1.1 µM and inactive = higher.

Columns and labels:
Test in all cases: DTP human tumour cell line panel, 48 h
A498 = system: A498
A549 = system: A549
COLO 205 = system: COLO 205
DU-145 = system: DU-145
EKVX = system: EKVX
HCT-15 = system: HCT-15
Hs-578T = system: Hs-578T
LXFL 529 = system: LXFL 529
M14 = system: M14
MCF7 = system: MCF7
MOLT-4 = system: MOLT-4
Malme-3M = system: Malme-3M
NCI-H23 = system: NCI-H23
OVCAR-4 = system: OVCAR-4
OVCAR-8 = system: OVCAR-8
SF-295 = system: SF-295
SK-MEL-2 = system: SK-MEL-2
SNB-75 = system: SNB-75
SW-620 = system: SW-620
UACC-257 = system: UACC-257

## CCCN(CCCCC(NC(C)=O)C(=O)NCc1ccccc1)C(=O)N(CCCl)N=O (stereo not given)
A498
  GI50: > 86.9 µM (inactive)
A549
  GI50: 32.3 µM (inactive)
COLO 205
  GI50: > 90.2 µM (inactive)
DU-145
  GI50: 27.2 µM (inactive)
EKVX
  GI50: > 100 µM (inactive)
HCT-15
  GI50: > 100 µM
Hs-578T
  GI50: 42.1 µM (inactive)
LXFL 529
  GI50: > 100 µM (inactive)
M14
  GI50: 59.6 µM (inactive)
MCF7
  GI50: 40 µM (inactive)
MOLT-4
  GI50: 36.3 µM (inactive)
Malme-3M
  GI50: > 100 µM (inactive)
NCI-H23
  GI50: 49.9 µM (inactive)
OVCAR-4
  GI50: > 100 µM (inactive)
OVCAR-8
  GI50: > 89.7 µM (inactive)
SF-295
  GI50: 20.9 µM (inactive)
SK-MEL-2
  GI50: > 100 µM (inactive)
SNB-75
  GI50: 27.1 µM (inactive)
SW-620
  GI50: > 97.1 µM (inactive)
UACC-257
  GI50: > 100 µM (inactive)

## O=[N+]([O-])C(/C=N/Nc1ccccc1)/C=N/Nc1ccccc1
A498
  GI50: > 100 µM (inactive)
A549
  GI50: > 100 µM (inactive)
COLO 205
  GI50: > 100 µM (inactive)
EKVX
  GI50: > 100 µM (inactive)
HCT-15
  GI50: > 100 µM
LXFL 529
  GI50: > 100 µM (inactive)
M14
  GI50: > 100 µM (inactive)
MOLT-4
  GI50: > 100 µM (inactive)
Malme-3M
  GI50: > 100 µM (inactive)
NCI-H23
  GI50: > 100 µM (inactive)
OVCAR-4
  GI50: > 100 µM (inactive)
OVCAR-8
  GI50: > 100 µM (inactive)
SF-295
  GI50: > 100 µM (inactive)
SK-MEL-2
  GI50: > 100 µM (inactive)
SNB-75
  GI50: > 100 µM (inactive)
SW-620
  GI50: > 100 µM (inactive)
UACC-257
  GI50: > 100 µM (inactive)

## Cc1ccc(S(=O)OCc2c(C)c(C)c(COS(=O)c3ccc(C)cc3)c(C)c2C)cc1 (stereo not given)
A498
  GI50: > 100 µM (inactive)
A549
  GI50: > 100 µM (inactive)
COLO 205
  GI50: > 100 µM (inactive)
EKVX
  GI50: > 100 µM (inactive)
HCT-15
  GI50: > 100 µM
LXFL 529
  GI50: > 100 µM (inactive)
M14
  GI50: > 100 µM (inactive)
MOLT-4
  GI50: > 100 µM (inactive)
Malme-3M
  GI50: > 100 µM (inactive)
NCI-H23
  GI50: > 100 µM (inactive)
OVCAR-4
  GI50: > 100 µM (inactive)
OVCAR-8
  GI50: > 100 µM (inactive)
SF-295
  GI50: > 100 µM (inactive)
SNB-75
  GI50: > 100 µM (inactive)
SW-620
  GI50: > 100 µM (inactive)
UACC-257
  GI50: > 100 µM (inactive)

## Cc1nc2ccccc2c(=O)n1NC(=S)Nc1ccc(Cl)cc1[N+](=O)[O-]
A498
  GI50: > 100 µM (inactive)
A549
  GI50: > 100 µM (inactive)
COLO 205
  GI50: > 100 µM (inactive)
DU-145
  GI50: > 100 µM (inactive)
EKVX
  GI50: 36.2 µM (inactive)
HCT-15
  GI50: > 100 µM
Hs-578T
  GI50: > 100 µM (inactive)
LXFL 529
  GI50: > 100 µM (inactive)
M14
  GI50: > 100 µM (inactive)
MCF7
  GI50: > 100 µM (inactive)
MOLT-4
  GI50: > 100 µM (inactive)
Malme-3M
  GI50: > 100 µM (inactive)
NCI-H23
  GI50: > 100 µM (inactive)
OVCAR-4
  GI50: > 100 µM (inactive)
OVCAR-8
  GI50: > 100 µM (inactive)
SF-295
  GI50: > 100 µM (inactive)
SK-MEL-2
  GI50: > 100 µM (inactive)
SNB-75
  GI50: > 78.3 µM (inactive)
SW-620
  GI50: > 100 µM (inactive)
UACC-257
  GI50: > 100 µM (inactive)

## COc1ccc(/C=C2\CCC(C)(CN(C)C)C2=O)cc1OC (stereo not given)
A498
  GI50: > 100 µM (inactive)
A549
  GI50: > 100 µM (inactive)
COLO 205
  GI50: > 100 µM (inactive)
EKVX
  GI50: 32.8 µM (inactive)
HCT-15
  GI50: > 100 µM
LXFL 529
  GI50: > 100 µM (inactive)
M14
  GI50: > 100 µM (inactive)
MOLT-4
  GI50: > 100 µM (inactive)
Malme-3M
  GI50: > 100 µM (inactive)
NCI-H23
  GI50: > 100 µM (inactive)
OVCAR-4
  GI50: > 100 µM (inactive)
OVCAR-8
  GI50: > 100 µM (inactive)
SF-295
  GI50: > 100 µM (inactive)
SK-MEL-2
  GI50: > 100 µM (inactive)
SNB-75
  GI50: > 100 µM (inactive)
SW-620
  GI50: > 100 µM (inactive)
UACC-257
  GI50: > 100 µM (inactive)

## CNC(=O)CN(CC(=O)O)C(=O)NC
A498
  GI50: > 100 µM (inactive)
A549
  GI50: > 100 µM (inactive)
COLO 205
  GI50: > 100 µM (inactive)
EKVX
  GI50: > 100 µM (inactive)
HCT-15
  GI50: > 100 µM
LXFL 529
  GI50: > 100 µM (inactive)
M14
  GI50: > 100 µM (inactive)
MOLT-4
  GI50: > 100 µM (inactive)
Malme-3M
  GI50: > 100 µM (inactive)
NCI-H23
  GI50: > 100 µM (inactive)
OVCAR-4
  GI50: > 100 µM (inactive)
OVCAR-8
  GI50: > 100 µM (inactive)
SF-295
  GI50: > 100 µM (inactive)
SK-MEL-2
  GI50: > 100 µM (inactive)
SNB-75
  GI50: > 100 µM (inactive)
SW-620
  GI50: > 100 µM (inactive)
UACC-257
  GI50: > 100 µM (inactive)

## C[P+](C)(CC(F)(F)F)c1ccccc1
A498
  GI50: > 100 µM (inactive)
A549
  GI50: > 100 µM (inactive)
COLO 205
  GI50: > 100 µM (inactive)
EKVX
  GI50: > 100 µM (inactive)
HCT-15
  GI50: > 100 µM
LXFL 529
  GI50: > 100 µM (inactive)
M14
  GI50: > 100 µM (inactive)
MOLT-4
  GI50: > 100 µM (inactive)
Malme-3M
  GI50: > 100 µM (inactive)
NCI-H23
  GI50: > 100 µM (inactive)
OVCAR-8
  GI50: > 100 µM (inactive)
SF-295
  GI50: > 100 µM (inactive)
SK-MEL-2
  GI50: > 100 µM (inactive)
SNB-75
  GI50: > 100 µM (inactive)
SW-620
  GI50: > 100 µM (inactive)
UACC-257
  GI50: > 100 µM (inactive)

## COc1cc2c(cc1OC)c1c(OC)c(OC)cc3c1c1c2sc(=S)n1CC3
A498
  GI50: > 100 µM (inactive)
A549
  GI50: > 100 µM (inactive)
COLO 205
  GI50: > 100 µM (inactive)
EKVX
  GI50: > 100 µM (inactive)
HCT-15
  GI50: 42.3 µM
LXFL 529
  GI50: 35.1 µM (inactive)
M14
  GI50: 18.4 µM (inactive)
MOLT-4
  GI50: 30.7 µM (inactive)
Malme-3M
  GI50: 86.3 µM (inactive)
NCI-H23
  GI50: 44.4 µM (inactive)
OVCAR-4
  GI50: 55 µM (inactive)
OVCAR-8
  GI50: 41.8 µM (inactive)
SF-295
  GI50: > 100 µM (inactive)
SK-MEL-2
  GI50: > 100 µM (inactive)
SNB-75
  GI50: 74.6 µM (inactive)
SW-620
  GI50: 51.1 µM (inactive)
UACC-257
  GI50: > 100 µM (inactive)
